Experiments:
E2 = E2 (Hepatitis C virus genotype 1a, UniProt P27958); assay: Binding of CD81 ligand 73735 to E2 (method not given); set-up: species or system HCV
HCVcc = HCVcc infection of Huh-7 cells (Gaussia luciferase); format: cell-based, HCV; conditions: Hepatitis C virus, Huh-7, 30 h, read-out: IC50 HCVcc
Experimental: The cell culture-produced HCV particles (HCVcc) used in this study were based on the JFH1 strain [36] and were prepared as described previously. They were engineered to express the A4 epitope, titer-enhancing mutations and Gaussia luciferase.
(§1) To identify ligands that inhibit HCV infection, Huh-7 cells were seeded in 96-well plates and treated the day after with six different concentrations of each ligand diluted in DMSO in duplicate using a Zephyr automated liquid handling workstation (Caliper BioSciences, Hopkinton, Mass.). The final concentration of DMSO (1%) was adjusted to be the same for all ligand concentrations. Cells treated with DMSO were used as negative controls. Cells treated with different concentrations of anti-CD81 (JS-81 from BD Pharmingen, San Jose, Calif.) 1 hour before infection, were also used as positive controls. The third day, RD114pp, HCVpp or HCVcc were inoculated and incubated for 30 hours at 37° C. Firefly and Gaussia luciferase assays were performed as indicated by the manufacturer (Promega, San Luis Obispo, Calif.).
(§2) The remaining ligands were next tested against pseudotyped retroviral particles harboring genotype-2a HCV envelope proteins (HCVpp 2a), cell culture produced HCV particles (HCVcc) or RD114pp. As a positive control, an anti-CD81 antibody was used in parallel.

HCVpp 2a = HCVpp 2a infection of Huh-7 cells, 96-well (luciferase); format: cell-based, HCV; conditions: Hepatitis C virus, Huh-7, 30 h, read-out: IC50 HCVpp
Experimental: (§3) Pseudotyped retroviral particles harboring HCV envelope proteins (HCVpp) from different genotypes were produced as described previously. A plasmid encoding the feline endogenous virus RD114 glycoprotein [35] was used for the production of RD114pp. Both HCVpp and RD114pp expressed Firefly luciferase.
as §1, §2

recombinant E2 protein = biological target: T1, recombinant E2 protein (Hepatitis C virus genotype 1b, UniProt Q9WMX2); assay: Surface plasmon resonance (Biacore T100) binding to recombinant E2 immobilized on CM5 chip; conditions: for Binding (RU): 200 μM ligand in PBS, 3 min association; for Dissociation 1 (RU): response remaining 10 sec after rinsing with buffer; for Dissociation 2 (RU): response remaining 50 sec after rinsing with buffer
T1 construct: encoding amino acids 384-656 of the Con1 envelope protein 2 ectodomain (eE2); made in house; host or cells: HEK293T cells (lentiviral, secreted)
Source text: A construct containing the sequence encoding amino acids 384-656 of the Con1 envelope protein 2 ectodomain (eE2), a genoptype 1 E2 sequence, was cloned into a lentiviral expression vector with a carboxy-terminal Protein A tag separated by a PreScission Protease cleavage consensus sequence. eE2-ProtA was stably expressed in HEK293T cells using lentiviral infection. The protein was secreted into the media and supernatants were purified using IgG Sepharose (GE Healthcare, Piscataway, N.J.). eE2-ProtA was eluted with 100 mM sodium citrate and 20 mM KCl at pH 3 directly into tubes containing 1M Tris pH 9 for immediate neutralization. PreScission Protease was added to the eluted sample at a ratio of 1:50 (enzyme:eE2), and the digest was then dialyzed into 20 mM HEPES pH 7.5, 250 mM NaCl, 5% glycerol. eE2 was separated from the cleaved tag and the PreScission Protease by ion exchange chromatography.
The set of 34 of the ligands predicted by AutoDock to bind to E2 were tested experimentally to determine if they bind to recombinant E2 protein immobilized on a chip using surface Plasmon resonance. The SPR analyses were performed using a Biacore T100 workstation (GE Healthcare, NJ, USA) and Prot-A-tagged HCV E2 protein. 1 μM ProtA-HCV E2 was diluted into 10 mM sodium acetate buffer pH 5 and immobilized for 15 min at a flow speed of 5 μl/min onto a CM5 sensor chip using amine coupling (EDC-NHS). Approximately 10,000 response units (RU) of protein were immobilized on the chip. His-CD81-LEL (Bioclone-CA/USA) binding to HCV E2 was tested prior to injecting the ligands to confirm the E2 protein was functional and would bind CD81-LEL. In a typical experiment with CD81, […] of his-CD81 in 114 μl PBS was injected into channel 2 and 106.4 RUs of CD81 bound to the E2 on the chip. This was followed by testing the binding of the 34 virtual screening hits where the ligands were prepared as 200 μM solutions in PBS and they were introduced to the protein using a pre-programmed 3 min association and 1 min dissociation interval. The response was measured at two time points during dissociation, 10 and 50 seconds, to obtain information on the rate of ligand dissociation from E2. Twenty-three of the ligands predicted by AutoDock to bind to E2 were observed by SPR to bind to the recombinant protein (Table 2). The measured responses for the ligands that bound varied from 54 to 276 RUs. Data was also obtained on the rate of ligand dissociation by measuring the amount of ligand remaining bound at two time points, dissociation 1 (10 seconds) and dissociation 2 (50 seconds), during the rinsing of the chip with buffer (FIG. 8). The majority of the ligands dissociated quickly, as one might expect for small molecules that bind to the surface of a protein.

RD114pp = RD114pp infection of Huh-7 cells (luciferase); format: cell-based, feline endogenous virus RD114; conditions: Feline endogenous virus RD114, Huh-7, 30 h, read-out: IC50 RD114pp
Experimental: as §3, §1
Pseudotyped retroviral particles harboring the envelope protein of an endogenous feline retrovirus (RD114pp) were first used to determine the specificity and the safety of molecules.

T1 sequence (Q9WMX2 384-656): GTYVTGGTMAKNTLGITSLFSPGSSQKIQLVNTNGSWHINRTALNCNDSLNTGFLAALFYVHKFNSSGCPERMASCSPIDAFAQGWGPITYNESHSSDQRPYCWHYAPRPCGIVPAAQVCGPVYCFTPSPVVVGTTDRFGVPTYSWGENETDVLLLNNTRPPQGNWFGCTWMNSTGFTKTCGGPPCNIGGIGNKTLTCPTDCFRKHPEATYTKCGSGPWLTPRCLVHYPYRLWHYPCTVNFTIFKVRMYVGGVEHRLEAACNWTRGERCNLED
Chain of E2 (P27958 384-746): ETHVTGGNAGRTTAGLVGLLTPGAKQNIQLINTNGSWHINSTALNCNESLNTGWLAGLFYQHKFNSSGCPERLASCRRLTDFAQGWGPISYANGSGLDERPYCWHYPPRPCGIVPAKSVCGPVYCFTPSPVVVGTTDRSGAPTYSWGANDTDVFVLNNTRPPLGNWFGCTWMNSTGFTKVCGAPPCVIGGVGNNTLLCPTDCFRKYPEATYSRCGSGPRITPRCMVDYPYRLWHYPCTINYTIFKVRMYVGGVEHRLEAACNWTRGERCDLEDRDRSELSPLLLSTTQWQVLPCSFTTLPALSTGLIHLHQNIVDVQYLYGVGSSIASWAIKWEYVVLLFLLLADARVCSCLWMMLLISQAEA

COc1cc(-c2ccc(Nc3ccccc3C(=O)O)c(OC)c2)ccc1Nc1ccccc1C(=O)O [Ligand 73735]
binding to E2 (in words) (E2): determined to bind to E2

Cc1nc(/N=C(\N)N(C)C)[nH]c(=O)c1C [Ligand 113486, 2-(5,6-dimethyl-4-oxo-1H-pyrimidin-2-yl)-1,1-dimethylguanidine]
IC50 (HCVcc): > 10 µM | IC50 (HCVpp 2a): > 10 µM | Binding (RU) (recombinant E2 protein): 104.7 RU | Dissociation 1 (RU) (recombinant E2 protein): 7 RU | Dissociation 2 (RU) (recombinant E2 protein): 2.6 RU | IC50 (RD114pp): > 10 µM

O=C(Nc1cccc([N+](=O)[O-])c1)c1cccc(C(=O)Nc2cccc([N+](=O)[O-])c2)c1 [Ligand 204232]
IC50 (HCVcc): > 10 µM | IC50 (HCVpp 2a): > 10 µM | Binding (RU) (recombinant E2 protein): 63.4 RU | Dissociation 1 (RU) (recombinant E2 protein): 2.5 RU | Dissociation 2 (RU) (recombinant E2 protein): 0.4 RU | IC50 (RD114pp): > 10 µM

C[C@]12CC[C@@H]3c4ccc(OCC(=O)O)cc4CC[C@H]3[C@@H]1CCC2=O [Ligand 86467, 2-[[(8R,9S,13S,14S)-13-methyl-17-oxo-7,8,9,11,12,14,15,16-octahydro-6H-cyclopenta[a]phenanthren-3-yl]oxy]acetate]
IC50 (HCVcc): > 10 µM | IC50 (HCVpp 2a): > 10 µM | binding to recombinant E2 protein by SPR (in words) (recombinant E2 protein): bound | Binding (RU) (recombinant E2 protein): 54.9 RU | Dissociation 1 (RU) (recombinant E2 protein): 1.9 RU | Dissociation 2 (RU) (recombinant E2 protein): 0.8 RU | IC50 (RD114pp): > 10 µM

Reference: patent publication US20160361311A1, “LIGANDS THAT TARGET HEPATITIS C VIRUS E2 PROTEIN” (AMERICAN UNIVERSITY OF CAIRO, priority 2014, published 2016)
